Several values for one entry are separate records, joined by “and”; a condition that tells them apart may be missing. Equal entries are not always repeated. Inconclusive results and toxic doses are left out. Rule for the calls: active = survival T/C of 150% or more; inactive = T/C below 125% in these data.
Tested on: CD2F1 mice, L1210 leukemia ip, survival T/C
Assay: NCI In Vivo Anticancer Drug Screen. Data for tumor model L1210 Leukemia (intraperitoneal) in CD2F1 (CDF1) mice
Settings: endpoint: mean survival time, higher = longer survival
Summary of the method: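 Mice carrying a transplanted tumor received test compound or vehicle alone. The value is the measurement in the treated group divided by that in the vehicle-treated control group.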

[1] = dose: 100.0 mg/kg/injection, schedule: Q04DX003 (ip), vehicle: saline with Tween-80
[2] = dose: 200.0 mg/kg/injection, schedule: Q04DX003 (ip), vehicle: saline with Tween-80
[3] = dose: 400.0 mg/kg/injection, schedule: Q04DX003 (ip), vehicle: saline with Tween-80

Measured: T/C

CCCCCCCCCCCCCCCC(=O)N(CCCN)c1ccc(N(CCCN)C(=O)CCCCCCCCCCCCCCC)cc1
inactive: [1] 98 % of control | [2] 98 % of control | [3] 97 % of control

CCOC(=O)c1cnc(NN)nc1Nc1cc(Cl)cc(Cl)c1
inactive: dose: 6.25 mg/kg/injection, schedule: Q01DX009 (ip), vehicle: saline with Tween-80 94 % of control | dose: 12.5 mg/kg/injection, schedule: Q01DX009 (ip), vehicle: saline with Tween-80 86 % of control | dose: 12.5 mg/kg/injection, schedule: Q04DX003 (ip), vehicle: saline with Tween-80 89 % of control | dose: 25.0 mg/kg/injection, schedule: Q01DX009 (ip), vehicle: saline with Tween-80 95 % of control | dose: 25.0 mg/kg/injection, schedule: Q04DX003 (ip), vehicle: saline with Tween-80 89 % of control

CNC(=O)c1ccc[n+](CC(=O)NCc2ccccc2)c1
inactive: dose: 100.0 mg/kg/injection, schedule: Q04DX003 (ip), vehicle: saline 107 % of control

CC[CH2][Sn]([Cl])([Cl])[CH2]CC.Oc1ccccc1C=NCCN=Cc1ccccc1O
inactive: dose: 0.62 mg/kg/injection, schedule: Q01DX009 (ip), vehicle: gum acacia 100 % of control | dose: 1.25 mg/kg/injection, schedule: Q01DX009 (ip), vehicle: gum acacia 100 % of control | dose: 2.5 mg/kg/injection, schedule: Q01DX009 (ip), vehicle: gum acacia 97 % of control and 103 % of control | dose: 3.3 mg/kg/injection, schedule: Q01DX009 (ip), vehicle: saline with Tween-80 103 % of control | dose: 5.0 mg/kg/injection, schedule: Q01DX001 (ip), vehicle: saline with Tween-80 94 % of control | dose: 5.0 mg/kg/injection, schedule: Q01DX009 (ip), vehicle: gum acacia 104 % of control and 108 % of control | dose: 5.0 mg/kg/injection, schedule: Q01DX009 (ip), vehicle: saline with Tween-80 92 % of control | dose: 7.5 mg/kg/injection, schedule: Q01DX009 (ip), vehicle: saline with Tween-80 95 % of control | dose: 10.0 mg/kg/injection, schedule: Q01DX001 (ip), vehicle: saline with Tween-80 95 % of control | dose: 20.0 mg/kg/injection, schedule: Q01DX001 (ip), vehicle: saline with Tween-80 96 % of control

CCCCCCCCCC(=O)NCC[N+](C)(CC)CC
inactive: dose: 5.0 mg/kg/injection, schedule: Q01DX001 (ip), vehicle: saline 102 % of control | dose: 10.0 mg/kg/injection, schedule: Q01DX001 (ip), vehicle: saline 107 % of control | dose: 20.0 mg/kg/injection, schedule: Q01DX001 (ip), vehicle: saline 100 % of control | dose: 40.0 mg/kg/injection, schedule: Q01DX001 (ip), vehicle: saline 105 % of control

O=C(Nc1cc([N+](=O)[O-])ccc1F)N(CCO)C1CCCCC1
inactive: dose: 100.0 mg/kg/injection, schedule: Q01DX009 (ip), vehicle: saline with Tween-80 98 % of control | dose: 200.0 mg/kg/injection, schedule: Q01DX009 (ip), vehicle: saline with Tween-80 98 % of control | dose: 400.0 mg/kg/injection, schedule: Q01DX009 (ip), vehicle: saline with Tween-80 103 % of control

CCCCOC(=O)c1cc([N+](=O)[O-])c(Sc2ncnc3nc[nH]c23)c([N+](=O)[O-])c1
inactive: dose: 0.63 mg/kg/injection, schedule: Q01DX005 (ip), vehicle: other 106 % of control | dose: 1.25 mg/kg/injection, schedule: Q01DX005 (ip), vehicle: other 104 % of control | dose: 2.5 mg/kg/injection, schedule: Q01DX005 (ip), vehicle: other 106 % of control | dose: 5.0 mg/kg/injection, schedule: Q01DX005 (ip), vehicle: other 106 % of control | dose: 10.0 mg/kg/injection, schedule: Q01DX005 (ip), vehicle: other 114 % of control | dose: 15.0 mg/kg/injection, schedule: Q01DX005 (ip), vehicle: other 120 % of control

Cc1[nH]c(=O)c(Br)cc1Br
inactive: [1] 98 % of control | [2] 101 % of control | [3] 101 % of control

Cc1c2[nH]c(c1CCC(=O)O)/C=c1\[n-]/c(c(C)c1CCC(=O)O)=C\c1[n-]c(c(C)c1C(C)O)/C=c1\[nH]/c(c(C)c1C(C)O)=C\2.[Cl][Pt+2][Cl] (centres undefined)
inactive: dose: 12.5 mg/kg/injection, schedule: Q04DX003 (ip), vehicle: Klucel (hydroxypropylcellulose) (HPC) 88 % of control | dose: 25.0 mg/kg/injection, schedule: Q04DX003 (ip), vehicle: Klucel (hydroxypropylcellulose) (HPC) 90 % of control | dose: 50.0 mg/kg/injection, schedule: Q04DX003 (ip), vehicle: Klucel (hydroxypropylcellulose) (HPC) 93 % of control | dose: 100.0 mg/kg/injection, schedule: Q04DX003 (ip), vehicle: Klucel (hydroxypropylcellulose) (HPC) 88 % of control

From PubChem BioAssay AID256 (DTP/NCI, 2004)
